According to patent US20210070748A1, “INHIBITORS OF BRUTONS TYROSINE KINASE” (Pharmacyclics LLC, priority 2015, published 2021):
pIC50: −log10 of the molar value. Read-outs that look alike come from different tables or passages of the source.

Experiments:
[1] = molecular target: T1, BTK-WT (Homo sapiens, UniProt Q06187); experiment: Btk in vitro inhibitory activity (one of Method A TR-FRET, Method B electrophoretic mobility shift, Method C radiometric filter binding); type: biochemical; settings: read-out: IC50 BTK-WT
T1 construct: purified from insect cells as a full-length construct containing an N-terminal 6X-His tag; His6 (N); made in house; host or cells: insect cells (baculovirus Sf21 in Method B)
Method: Btk kinase activity is determined using a time-resolved fluorescence resonance energy transfer (TR-FRET) methodology. Measurements are performed in a reaction volume of 50 μL using 96-well assay plates. […] The reaction is quenched by the addition of 1.2 equivalents of EDTA (relative to divalent cation) in 25 μL of 1× Lance buffer (Perkin-Elmer). […] The TR-FRET signal is measured on a multimode plate reader with an excitation wavelength (λEx) of 330 nm and detection wavelengths (λEm) of 615 and 665 nm. Activity is determined by the ratio of the fluorescence at 665 nm to that at 615 nm. For each compound, enzyme activity is measured at various concentrations of compound. Negative control reactions are performed in the absence of inhibitor in replicates of six, and two no-enzyme controls are used to determine baseline fluorescence levels. Inhibition constants, Ki(app), were obtained using the program BatchKi(Kuzmic et al. (2000), Anal. Biochem. 286:45-50). IC50s are obtained according to the equation:
IC50={Ki(app)/(1+[ATP]/Km^ATP)}+[E]total/2;
Kinase activity is measured in vitro using electrophoretic mobility shift assay. The kinase reactions are assembled in a total volume of 25 μL in 384 well plates. […] The reaction is incubated for one hour and is quenched by the addition of 45 μL of termination buffer (100 mM HEPES, pH7.5, 0.01% Triton X-100, 30 mM EDTA). The terminated reactions are analyzed using 12 channel LabChip® 3000 microfluidic detection instrument (Caliper Life Sciences). […] Change in the relative fluorescence intensity of the substrate and product peaks is the parameter measured, reflecting enzyme activity. In the presence of an inhibitor, the ratio between product and substrate is altered: the signal of the product decreases, while the signal of the substrate increases.
Activity in each sample is determined as the product to sum ratio (PSR): P/(S+P), where P is the peak height of the product peptide and S is the peak height of the substrate peptide. For each compound, enzyme activity is measured at various concentrations (12 concentrations of compound spaced by 3× dilution intervals). Negative control samples (0%-inhibition in the absence of inhibitor) and positive control samples (100%-inhibition, in the presence of 20 mM EDTA) are assembled in replicates of four and are used to calculate %-inhibition values for each inhibitor at each concentration. Percent inhibition (Pinh) is determined using following equation:
Pinh=(PSR0%-PSRinh)/(PSR0%−PSR100%)*100, where PSRinh is the product sum ratio in the presence of inhibitor, PSR0% is the average product sum ration in the absence of inhibitor and PSR100% is the average product sum ratio in 100%-inhibition control samples;
The IC50 values of inhibitors are determined by 4 parameter sigmoidal dose-response model fitting of the inhibition curves (Pinh versus inhibitor concentration) using XLfit 4 software.
Human Btk kinase (Genbank accession # NP_000052) was purified from insect cells as a full-length construct containing an N-terminal 6X-His tag. Btk kinase activity was determined using a radiometric filter binding assay. Measurements are performed in a low μL reaction volume 384-well assay plates. […] IC50 values and curve fits were obtained using Prism (GraphPad Software).

[2] = molecular target: T2, ITK (Homo sapiens, UniProt Q08881); experiment: Inhibition of a panel of kinases, in vitro HotSpot kinase assay: ITK; type: biochemical
T2 sequence (Q08881 1-620): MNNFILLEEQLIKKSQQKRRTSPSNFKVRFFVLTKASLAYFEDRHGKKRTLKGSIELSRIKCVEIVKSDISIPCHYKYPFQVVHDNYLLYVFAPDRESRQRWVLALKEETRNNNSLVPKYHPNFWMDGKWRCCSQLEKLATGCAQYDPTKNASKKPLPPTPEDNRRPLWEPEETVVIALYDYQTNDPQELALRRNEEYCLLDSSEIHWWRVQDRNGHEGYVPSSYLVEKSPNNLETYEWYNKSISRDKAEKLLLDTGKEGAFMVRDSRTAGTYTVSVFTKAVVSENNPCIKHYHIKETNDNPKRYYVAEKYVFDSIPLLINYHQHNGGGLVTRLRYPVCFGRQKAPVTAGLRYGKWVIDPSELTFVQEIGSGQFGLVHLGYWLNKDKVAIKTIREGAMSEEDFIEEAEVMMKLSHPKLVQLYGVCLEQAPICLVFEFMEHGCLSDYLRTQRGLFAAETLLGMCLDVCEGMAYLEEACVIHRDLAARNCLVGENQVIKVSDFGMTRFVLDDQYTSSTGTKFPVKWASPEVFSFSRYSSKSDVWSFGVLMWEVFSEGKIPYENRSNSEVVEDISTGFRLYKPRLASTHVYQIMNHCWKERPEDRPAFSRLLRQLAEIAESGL
Method: The degree of inhibition of a panel of kinases is determined using the in vitro HotSpot kinase assay (purified enzymes, ^33P-ATP, an appropriate substrate and 1 μM ATP).

[3] = Table 15, C compounds, 1 μM ATP

T1 sequence (Q06187 whole entry): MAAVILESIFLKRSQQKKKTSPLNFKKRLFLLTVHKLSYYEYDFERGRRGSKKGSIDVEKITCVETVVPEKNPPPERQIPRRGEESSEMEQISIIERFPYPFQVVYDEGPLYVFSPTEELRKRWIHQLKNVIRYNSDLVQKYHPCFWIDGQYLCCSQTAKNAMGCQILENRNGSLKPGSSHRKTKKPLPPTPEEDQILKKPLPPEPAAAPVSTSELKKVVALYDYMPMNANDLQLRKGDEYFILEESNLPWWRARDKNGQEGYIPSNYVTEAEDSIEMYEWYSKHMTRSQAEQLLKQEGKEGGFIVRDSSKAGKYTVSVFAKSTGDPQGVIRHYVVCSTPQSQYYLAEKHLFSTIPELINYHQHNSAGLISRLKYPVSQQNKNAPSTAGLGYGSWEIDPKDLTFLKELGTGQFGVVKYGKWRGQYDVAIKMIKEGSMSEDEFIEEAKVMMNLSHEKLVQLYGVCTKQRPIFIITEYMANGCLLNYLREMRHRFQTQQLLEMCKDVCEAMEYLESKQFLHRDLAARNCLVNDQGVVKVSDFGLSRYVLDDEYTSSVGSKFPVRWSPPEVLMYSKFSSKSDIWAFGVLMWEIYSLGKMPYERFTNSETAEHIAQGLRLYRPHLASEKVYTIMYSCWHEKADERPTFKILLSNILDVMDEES

Structure (SMILES)	pIC50 ([1]; E compounds, Table 17)	pIC50 ([2]; E compounds, Table 17)	pIC50 ([1]; Table 15, C compounds)	pIC50 [2, 3]	further results
C=CC(=O)N1CCC[C@@H](Nc2nnc(C(N)=O)c(Nc3ccc(C4(C#N)CC4)cc3)n2)C1 [Example E-38, (R)-3-(1-acryloylpiperidin-3-ylamino)-5-(4-(1-cyanocyclopropyl)phenylamino)-1,2,4-triazine-6-carboxamide]	≥ 8.00	≥ 8.00	–	–	–
C=CC(=O)N[C@H]1CCCN(c2nnc(C(N)=O)c(Nc3ccc(C(C)C)cc3)n2)C1 [Example A-95, (S)-3-(3-acrylamido-piperidin-1-yl)-5-(4-isopropylphenylamino)-1,2,4-triazine-6-carboxamide]	–	–	–	–	pIC50 ([1]; Table 13, A compounds): 7.00 to 8.00; pIC50 ([2]; Table 13, A compounds, 1 μM ATP): 6.00 to 7.00
CCC(=O)N1CCC[C@@H](Nc2nnc(C(N)=O)c(Nc3ccc(C(C)(C)C)cc3)n2)C1 [Example E-35, (R)-5-(4-tert-butylphenylamino)-3-(1-propionylpiperidin-3-ylamino)-1,2,4-triazine-6-carboxamide]	≥ 8.00	6.00 to 7.00	–	–	–
C=CC(=O)N1CCC[C@@H](Nc2nnc(C(N)=O)c(Nc3cccc(C)c3)n2)C1 [Example E-44, (R)-3-(1-acryloylpiperidin-3-ylamino)-5-(m-tolylamino)-1,2,4-triazine-6-carboxamide]	≥ 8.00	7.00 to 8.00	–	–	–
C=CC(=O)N1CCC[C@@H](Nc2nnc(C(N)=O)c(Nc3ccc(C(C)C)cc3)n2)[C@@H]1C [Example E-17, 3-((2S,3R)-1-acryloyl-2-methylpiperidin-3-ylamino)-5-(4-isopropylphenylamino)-1,2,4-triazine-6-carboxamide]	≥ 8.00	7.00 to 8.00	–	–	–
C=CC(=O)N1CCC[C@@H](Nc2nnc(C(N)=O)c(Nc3ccc(C4CC4)cc3)n2)C1 [Example E-36, (R)-3-(1-acryloylpiperidin-3-ylamino)-5-(4-cyclopropylphenyl-amino)-1,2,4-triazine-6-carboxamide]	≥ 8.00	7.00 to 8.00	–	–	–
C=CC(=O)N1CCC[C@@H](Nc2nnc(C(N)=O)c(Nc3ccc(C(C)C)cc3)n2)[C@@H]1C (racemic) [Example C-33, 3-((2S,3R)-1-acryloyl-2-methylpiperidin-3-ylamino)-5-(4-isopropylphenylamino)-1,2,4-triazine-6-carboxamide]	–	–	≥ 8.00	7.00 to 8.00	–
C=CC(=O)N1CCC[C@H](Nc2cnc(C(N)=O)c(Nc3ccc(-c4ncccn4)cc3)n2)C1 [Example C-36, (S)-5-(1-acryloylpiperidin-3-ylamino)-3-(4-(pyrimidin-2-yl)phenylamino) pyrazine-2-carboxamide]	–	–	≥ 8.00	6.00 to 7.00	–
C=CC(=O)N1CCC[C@@H](Nc2nnc(C(N)=O)c(Nc3ccc(C4(C#N)CC4)cc3)n2)C1 [Example C-48, (R)-3-(1-acryloylpiperidin-3-ylamino)-5-(4-(1-cyanocyclopropyl)phenylamino)-1,2,4-triazine-6-carboxamide]	–	–	≥ 8.00	≥ 8.00	–
CN(c1cnc(C(N)=O)c(Nc2ccc(C3(C)CCN(C4CCCC4)CC3)cc2)n1)[C@@H]1CCN(C(=O)C(F)(F)F)C1 [Example E-107, (R)-3-(4-(1-cyclopentyl-4-methylpiperidin-4-yl)phenylamino)-5-(methyl(1-(2,2,2-trifluoroacetyl)pyrrolidin-3-yl)amino)pyrazine-2-carboxamide]	≥ 8.00	≥ 8.00	–	–	–
C=CC(=O)N1CCC[C@@H](Nc2nnc(C(N)=O)c(Nc3cccc(-c4nccs4)c3)n2)C1 [Example E-70, (R)-3-(1-acryloylpiperidin-3-ylamino)-5-(3-(thiazol-2-yl)phenylamino)-1,2,4-triazine-6-carboxamide]	≥ 8.00	7.00 to 8.00	–	–	–
C=CC(=O)N1CCC[C@@H](Nc2nnc(C(N)=O)c(Nc3ccc(-c4cnn(C(=O)C=C)c4)cc3)n2)C1 [Example C-74]	–	–	≥ 8.00	7.00 to 8.00	–
C=CC(=O)N[C@@H]1CCCN(c2nnc(C(N)=O)c(Nc3ccc(C(C)C)cc3)n2)C1 [Example E-21, (R)-3-(3-acrylamidopiperidin-1-yl)-5-(4-isopropylphenylamino)-1,2,4-triazine-6-carboxamide]	7.00 to 8.00	6.00 to 7.00	–	–	–
CN(c1cnc(C(N)=O)c(Nc2ccc(C3(C)CCN(C4CCCC4)CC3)cc2)n1)[C@@H]1CCN(C(=O)C(F)(F)F)C1 [Example C-68, (R)-3-(4-(1-cyclopentyl-4-methylpiperidin-4-yl)phenylamino)-5-(methyl(1-(2,2,2-trifluoroacetyl)pyrrolidin-3-yl)amino)pyrazine-2-carboxamide]	–	–	≥ 8.00	≥ 8.00	–
C=CC(=O)N[C@@H]1CCCC[C@@H]1Nc1nnc(C(N)=O)c(Nc2ccc(C(C)C)cc2)n1 [Example E-34, 3-((1S,2R)-2-acrylamidocyclohexyl-amino)-5-(4-isopropylphenylamino)-1,2,4-triazine-6-carboxamide]	7.00 to 8.00	6.00 to 7.00	–	–	–
C=CC(=O)N[C@@H]1CCCC[C@H]1Nc1nnc(C(N)=O)c(Nc2ccc(C(C)C)cc2)n1 [Example E-28, 3-((1R,2R)-2-acrylamidocyclo-hexylamino)-5-(4-isopropylphenylamino)-1,2,4-triazine-6-carboxamide]	≥ 8.00	6.00 to 7.00	–	–	–
C=CC(=O)N1CCC[C@@H](N(C(=O)C=C)c2nnc(C(N)=O)c(Nc3ccc(C4(C#N)CC4)cc3)n2)C1 [Example C-50, (R)-3-(N-(1-acryloylpiperidin-3-yl)acrylamido)-5-(4-(1-cyanocyclopropyl)phenylamino)-1,2,4-triazine-6-carboxamide]	–	–	≥ 8.00	6.00 to 7.00	–
C=CC(=O)N1CCCC[C@H](Nc2nnc(C(N)=O)c(Nc3ccc(C(C)C)cc3)n2)C1 [Example E-19, (S)-3-(1-acryloylazepan-3-ylamino)-5-(4-isopropylphenylamino)-1,2,4-triazine-6-carboxamide]	≥ 8.00	6.00 to 7.00	–	–	–
CN(c1cnc(C(N)=O)c(Nc2ccc(C3(C)CCN(C4CC4)CC3)cc2)n1)[C@@H]1CCN(C(=O)C(F)(F)F)C1 [Example E-105, (R)-3-(4-(1-cyclopropyl-4-methylpiperidin-4-yl)phenylamino)-5-(methyl(1-(2,2,2-trifluoroacetyl)pyrrolidin-3-yl)amino)pyrazine-2-carboxamide]	≥ 8.00	≥ 8.00	–	–	–
C=CC(=O)N1CCC[C@@H](Nc2nnc(C(N)=O)c(Nc3cccc(C)c3)n2)C1 [Example C-55, (R)-3-(1-acryloylpiperidin-3-ylamino)-5-(m-tolylamino)-1,2,4-triazine-6-carboxamide]	–	–	≥ 8.00	7.00 to 8.00	–
